According to patent publication US20200163984A1, “USE OF ISOVALERYL SPIRAMYCIN I, II AND/OR III IN MANUFACTURING MEDICAMENT FOR TREATING AND/OR PREVENTING TUMOR, AND MEDICAMENT” (SHENYANG FUYANG PHARMACEUTICAL TECHNOLOGY CO., LTD., priority 2017, published 2020):

Key:
[1] = test system: transplanted tumor of HL60 cells; assay: HL-60 transplanted tumor in nude mice
Protocol: (§1) HL-60 cells in a logarithmic growth phase were taken and subjected to a trypan blue exclusion experiment showing that the cell viability was more than 95%, then the cells were subjected to trypsinization, centrifugation, and supernatant removal. Then cell concentration was adjusted to 1×10^7/ml with matrigel, then each nude mouse was inoculated subcutaneously with 0.2 ml of cells at its right armpit and recorded as the first day of inoculation. When the tumor grows to be greater than or equal to 100 mm^3, the mice were randomly divided into 11 groups with 6 mice in each group: isovaleryl spiramycin I groups with doses of 25, 50 and 100 mg/kg, isovaleryl spiramycin II groups with doses of 25, 50 and 100 mg/kg, and isovaleryl spiramycin III groups with doses of 25, 50 and 100 mg/kg. Each group was continuously administered intragastrically for 30 days with a dose of 20 ml/kg. The mice were sacrificed the next day after drug withdrawal and the indicators were tested. The long diameter and short diameter of the tumor, and the weight of each mouse were recorded every 3 days from drug administration to nude mouse sacrifice.
(§2) The body weight of the nude mice and the long diameter (a) and short diameter (b) of the transplanted tumor were measured every 3 days, and the tumor volume (v), relative tumor volume (RTV) and relative tumor proliferation rate (T/C) are calculated respectively according to the following formulas, wherein V=a×b^2/2; RTV=V/V0 (V0 is the tumor volume before administration, V is the tumor volume before sacrifice), and T/C (%)=treatment group RTV/model control group RTV×100%.
(§3) Each mouse was weighed and sacrificed. After the tumor was completely stripped off from the body of the mouse, the non-tumor tissues such as blood stains and fat were removed to weigh the tumor and calculate the tumor growth inhibition rate. The average tumor weight of each group of mice is used as an indicator of efficacy. Tumor growth inhibition rate (%)=(1−the average tumor weight of the treatment group/the average tumor weight of the model group)×100%.

[2] = test system: transplanted tumor of mouse H22 liver cancer; assay: Transplanted tumor of mouse H22 liver cancer; details: for Tumor Volume (mm3) (d30): d 30
Protocol: The H22 cell strains cryopreserved in liquid nitrogen were resuscitated in Kunming mice. After 3 generations, the ascites of Kunming mice were taken and placed in a 50 ml centrifuge tube in which 10 ml of 0.9% normal saline was added, and then centrifuging was performed at 1000 rpm for 5 min at room temperature, and the obtained supernatant was removed. Then 10 ml of 0.9% normal saline was added to the tube to blow and mix well, and then the mixture was diluted to 5×10^6 live cells/ml with normal saline after counting. The tube was stored in ice water, and 75% ethanol was used to disinfect the skin under the right armpits of the mice. Each Kunming mouse was soon inoculated subcutaneously with 0.2 ml of the cells at the armpit of the right forelimb.
In the H22 liver cancer model, the mice inoculated with the tumor were randomly divided into groups with 10 mice in each group on the next day of inoculation. The groups included: a model control group, a positive drug cyclophosphamide control group (CTX, 26 mg/kg), isovaleryl spiramycin I groups with doses of 13, 26 and 52 mg/kg; isovaleryl spiramycin II groups with doses of 13, 26 and 52 mg/kg; isovaleryl spiramycin III groups with doses of 13, 26 and 52 mg/kg. Each group was continuously administered intragastrically for 7 days with a dose of 20 ml/kg.
The tumor-bearing mice were weighed and sacrificed the next day after the last administration. The subcutaneous tumors were dissected and weighed. The average tumor weight of each group is calculated, and the tumor inhibition rate is calculated.
Tumor inhibition rate=(1−T/C)×100%
T: average tumor weight of the drug-administered group; C: average tumor weight of the blank control group.

[3] = test system: transplanted tumor of human renal cell adenocarcinoma cell 769-P; assay: 769-P transplanted tumor in nude mice
Protocol: as §1, with “Then” for “HL-60 cells in a logarithmic growth phase were taken and subjected to a trypan blue exclusion experiment showing that the cell viability was more than 95%, then the cells were subjected to trypsinization, centrifugation, and supernatant removal. Then”, “group: a model group, a cyclophosphamide group,” for “group:”
as §2, §3

[4] = HL-60, high dose (100 mg/kg in method) i.g. 30 days
[5] = HL-60, low dose (25 mg/kg in method) i.g. 30 days
[6] = HL-60, medium dose (50 mg/kg in method) i.g. 30 days
[7] = 769-P, high dose (100 mg/kg in method) i.g. 30 days
[8] = 769-P, low dose (25 mg/kg in method) i.g. 30 days
[9] = 769-P, medium dose (50 mg/kg in method) i.g. 30 days

## COC1C(OC(C)=O)CC(=O)OC(C)CC=CC=CC(OC2CCC(N(C)C)C(C)O2)C(C)CC(CC=O)C1OC1OC(C)C(OC2CC(C)(O)C(OC(=O)CC(C)C)C(C)O2)C(N(C)C)C1O (stereo not shown) [Isovaleryl spiramycin II, isovaleryl spiramycin II]
[1]; [4]
  Relative Tumor Proliferation Rate (T/C): 41.36%
  tumor growth inhibition rate: 51.81%
[1]; [5]
  Relative Tumor Proliferation Rate (T/C): 75.39%
  tumor growth inhibition rate: 15.92%
[1]; HL-60, low, medium and high doses, P<0.05
  tumor volume and relative tumor volume compared with the model group: significantly lower
[1]; [6]
  Relative Tumor Proliferation Rate (T/C): 65.18%
  tumor growth inhibition rate: 29.48%
[1]; dose 25 mg/kg
  Inhibition Rate (%): 15.92%
  Relative Tumor Proliferation Rate (T/C): 75.39%
  Relative Tumor Volume (RTV): 8.48 ± 1.37
  Tumor Weight: 1.90 ± 0.33 g
[1]; dose 25 mg/kg, d 1
  Tumor Volume (mm3) (d 1): 189.51 ± 28.58 mm3
[1]; dose 25 mg/kg, d 30
  Tumor Volume (mm3) (d30): 1596.76 ± 293.76 mm3
[1]; dose 50 mg/kg
  Inhibition Rate (%): 29.48%
  Relative Tumor Proliferation Rate (T/C): 65.18%
  Relative Tumor Volume (RTV): 7.33 ± 2.36
  Tumor Weight: 1.60 ± 0.45 g
[1]; dose 50 mg/kg, d 1
  Tumor Volume (mm3) (d 1): 184.06 ± 32.38 mm3
[1]; dose 50 mg/kg, d 30
  Tumor Volume (mm3) (d30): 1344.04 ± 466.62 mm3
[1]; dose 100 mg/kg
  Inhibition Rate (%): 51.81%
  Relative Tumor Proliferation Rate (T/C): 41.36%
  Relative Tumor Volume (RTV): 4.65 ± 1.77
  Tumor Weight: 1.09 ± 0.34 g
[1]; dose 100 mg/kg, d 1
  Tumor Volume (mm3) (d 1): 184.80 ± 33.56 mm3
[1]; dose 100 mg/kg, d 30
  Tumor Volume (mm3) (d30): 834.34 ± 308.27 mm3
[1]; mouse, in vivo
  mouse weight compared with the model group: no significant changes
[1]; mouse, in vivo, 25 mg/kg
  Body Weight (g) (d1): 20.78 ± 1.31 g
  Body Weight (g) (d30): 20.59 ± 1.54 g
[1]; mouse, in vivo, 50 mg/kg
  Body Weight (g) (d1): 21.01 ± 1.20 g
  Body Weight (g) (d30): 20.72 ± 1.29 g
[1]; mouse, in vivo, 100 mg/kg
  Body Weight (g) (d1): 20.65 ± 1.27 g
  Body Weight (g) (d30): 20.32 ± 1.55 g
[2]; 13, 26 and 52 mg/kg i.g. 7 days
  growth of H22 liver cancer in mice: significantly inhibit
[2]; dose 12.5 mg/kg
  Relative Tumor Proliferation Rate (T/C): 78.85
  Relative Tumor Volume (RTV): 7.83 ± 1.50
  Tumor Volume (mm3) (d30): 931.38 ± 141.51 mm3
[2]; dose 12.5 mg/kg, d 1
  Tumor Volume (mm3) (d 1): 120.80 ± 18.48 mm3
[2]; dose 13 mg/kg
  Inhibition Rate (%): 19.74%
  Tumor: 1.22 ± 0.31 g
[2]; dose 25 mg/kg
  Relative Tumor Proliferation Rate (T/C): 66.04
  Relative Tumor Volume (RTV): 6.56 ± 2.19
  Tumor Volume (mm3) (d30): 779.30 ± 292.34 mm3
[2]; dose 25 mg/kg, d 1
  Tumor Volume (mm3) (d 1): 118.02 ± 10.35 mm3
[2]; dose 26 mg/kg
  Inhibition Rate (%): 30.26%
  Tumor: 1.06 ± 0.33 g
[2]; dose 50 mg/kg
  Relative Tumor Proliferation Rate (T/C): 56.20
  Relative Tumor Volume (RTV): 5.58 ± 0.95
  Tumor Volume (mm3) (d30): 659.02 ± 138.35 mm3
[2]; dose 50 mg/kg, d 1
  Tumor Volume (mm3) (d 1): 118.18 ± 14.68 mm3
[2]; dose 52 mg/kg
  Inhibition Rate (%): 45.39%
  Tumor: 0.83 ± 0.46 g
[2]; mouse, in vivo, 13 mg/kg
  Body Weight (g) (d1): 24.22 ± 2.15 g
  Body Weight (g) (d 7): 27.27 ± 2.20 g
[2]; mouse, in vivo, 26 mg/kg
  Body Weight (g) (d1): 24.72 ± 1.69 g
  Body Weight (g) (d 7): 27.35 ± 0.80 g
[2]; mouse, in vivo, 52 mg/kg
  Body Weight (g) (d1): 23.45 ± 1.69 g
  Body Weight (g) (d 7): 27.02 ± 0.90 g
[3]; 769-P nude mice, 25 mg/kg
  Inhibition Rate (%): 38.29%
  Relative Tumor Proliferation Rate (T/C): 68.22%
  Relative Tumor Volume (RTV): 12.59 ± 5.32
  Tumor Weight: 1.27 ± 0.42 g
[3]; 769-P nude mice, 25 mg/kg, d1
  Tumor Volume (mm3) (d 1): 162.50 ± 59.24 mm3
[3]; 769-P nude mice, 25 mg/kg, d30
  Tumor Volume (mm3) (d30): 2045.85 ± 301.35 mm3
[3]; 769-P nude mice, 50 mg/kg
  Inhibition Rate (%): 47.61%
  Relative Tumor Proliferation Rate (T/C): 42.64%
  Relative Tumor Volume (RTV): 7.87 ± 2.29
  Tumor Weight: 1.3 ± 0.23 g
[3]; 769-P nude mice, 50 mg/kg, d1
  Tumor Volume (mm3) (d 1): 193.10 ± 35.41 mm3
[3]; 769-P nude mice, 50 mg/kg, d30
  Tumor Volume (mm3) (d30): 1519.68 ± 239.38 mm3
[3]; 769-P nude mice, 100 mg/kg
  Inhibition Rate (%): 61.79%
  Relative Tumor Proliferation Rate (T/C): 34.76%
  Relative Tumor Volume (RTV): 6.42 ± 0.99
  Tumor Weight: 0.79 ± 0.06 g
[3]; 769-P nude mice, 100 mg/kg, d1
  Tumor Volume (mm3) (d 1): 109.14 ± 10.13 mm3
[3]; 769-P nude mice, 100 mg/kg, d30
  Tumor Volume (mm3) (d30): 700.14 ± 100.08 mm3
[3]; [7]
  Relative Tumor Proliferation Rate (T/C): 34.76%
  tumor growth inhibition rate: 61.79%
[3]; [8]
  Relative Tumor Proliferation Rate (T/C): 68.22%
  tumor growth inhibition rate: 38.29%
[3]; 769-P, low, medium and high doses, P<0.05
  tumor volume and relative tumor volume compared with the model group: significantly lower
[3]; [9]
  Relative Tumor Proliferation Rate (T/C): 42.64%
  tumor growth inhibition rate: 47.61%
[3]; mouse, in vivo
  mouse weight compared with the model group: no significant changes
[3]; mouse, in vivo, 25 mg/kg
  Body Weight (g) (d1): 22.17 ± 1.47 g
  Body Weight (g) (d30): 22.05 ± 0.71 g
[3]; mouse, in vivo, 50 mg/kg
  Body Weight (g) (d1): 22.07 ± 1.52 g
  Body Weight (g) (d30): 22.42 ± 0.54 g
[3]; mouse, in vivo, 100 mg/kg
  Body Weight (g) (d1): 21.96 ± 1.19 g
  Body Weight (g) (d30): 22.33 ± 0.41 g

## O=P1(N(CCCl)CCCl)NCCCO1 (stereo not shown) [Cyclophosphamide, cyclophosphamide, reference compound]
[1]; dose 30 mg/kg
  Inhibition Rate (%): 70.30%
  Relative Tumor Proliferation Rate (T/C): 24.69%
  Relative Tumor Volume (RTV): 2.78 ± 1.89
  Tumor Weight: 0.67 ± 0.30 g
[1]; dose 30 mg/kg, d 1
  Body Weight (g) (d1): 20.65 ± 1.47 g
  Tumor Volume (mm3) (d 1): 180.63 ± 29.97 mm3
[1]; dose 30 mg/kg, d 30
  Body Weight (g) (d30): 18.47 ± 0.91 g
  Tumor Volume (mm3) (d30): 466.98 ± 255.88 mm3
[2]; H22, CTX 26 mg/kg i.g. 7 days
  weight compared with the normal control group: slight decrease
[2]; Kunming mouse H22 liver cancer, CTX 26 mg/kg i.g. 7 days
  tumor inhibition rate: 73.03%
[2]; dose 26 mg/kg
  Inhibition Rate (%): 73.03%
  Tumor: 0.41 ± 0.27 g
[2]; dose 26 mg/kg, d 1
  Body Weight (g) (d1): 23.72 ± 1.79 g
[2]; dose 26 mg/kg, d 7
  Body Weight (g) (d 7): 23.68 ± 1.32 g
[2]; dose 30 mg/kg
  Relative Tumor Proliferation Rate (T/C): 28.78
  Relative Tumor Volume (RTV): 2.86 ± 1.44
  Tumor Volume (mm3) (d30): 307.34 ± 79.91 mm3
[2]; dose 30 mg/kg, d 1
  Tumor Volume (mm3) (d 1): 119.60 ± 31.11 mm3
[3]; 769-P nude mice, 30 mg/kg
  Inhibition Rate (%): 70.52%
  Relative Tumor Proliferation Rate (T/C): 35.34%
  Relative Tumor Volume (RTV): 6.52 ± 0.90
  Tumor Weight: 0.6 ± 0.03 g
[3]; 769-P nude mice, 30 mg/kg, d1
  Body Weight (g) (d1): 21.61 ± 1.00 g
  Tumor Volume (mm3) (d 1): 107.92 ± 15.94 mm3
[3]; 769-P nude mice, 30 mg/kg, d30
  Body Weight (g) (d30): 21.58 ± 0.81 g
  Tumor Volume (mm3) (d30): 704.00 ± 45.50 mm3
